In patent US20160370353A1, “METHOD FOR DISTINGUISHING SECRETORY GRANULES OF DIFFERENT AGES” (TECHNISCHE UNIVERSITÄT DRESDEN MEDIZINISCHE FAKULTÄT CARL …, priority 2008, published 2016):

Test system: SNAP-tag (hINS-SNAP) in INS-1 cells
Assay: Dual-color labeling (TMR-Star, BTP block, BG505) of living INS-1 cells expressing hINS-SNAP; co-localization analysis
Format: cell-based, rat
Procedure: The first labeling was carried out for 15 min with 2 μM TMR (red) in normal media (I ml per well), followed by 2×PBS wash and 30 min, incubation in media without the SNAP substrate. The labeling with 10 μM BTP lasted 20 min. followed by two washings with PBS and 30 min incubation in media without BTP. The period between the BTP administration and the BG505 (green) administration was 4 hour long, so that any unbound BTP had sufficient time to be cleared out of the cells, thus allowing the labeling of newly synthesized hlns-SNAP. During this period […] additional washings were performed: two times with PBS and two times with media.
Cells were then incubated with 10 μM BG505 for 30 min, followed by two washings with PBS, 30 min incubation in media and another PBS washing. After the last washing, the cells were fixed (4% PFA, pH: 7.4 for 10 min at 4° C.) and embedded (ProLong Gold antifade reagent with DAPI, P36931, Molecular Probes). […]
Software analysis of the acquired images allowed the generation of images representing the co-localized pixels from both channels and also the characteristic scattered plots. […] The calculated Pearson's coefficients (10 μM BTP: 0.515; 0 μM BTP: 0.829) calculated according to Bolte et al., are in agreement with this interpretation.

Chain of SNAP-tag (hINS-SNAP) in INS-1 cells (P16455 1-182 C62A/K125A/A127T/R128A/G131K/G132T/M134L/R135S/C150S/N157G/S159E limits assumed): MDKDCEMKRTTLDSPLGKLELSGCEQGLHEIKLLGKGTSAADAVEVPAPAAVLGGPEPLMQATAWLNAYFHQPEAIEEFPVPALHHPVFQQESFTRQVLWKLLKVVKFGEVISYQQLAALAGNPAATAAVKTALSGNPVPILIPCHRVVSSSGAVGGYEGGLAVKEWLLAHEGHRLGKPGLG

## bromothenylpteridine [BTP]
INS-1 cells exposed sequentially to TMR, 10 μM BTP and BG505, control without blocker (0 μM BTP): 0.829
  Pearson's coefficient (co-localization of TMR and BG505 pixels): 0.515
Blocking step with BTP interposed between sequential labelings with TMR-Star and BG505, many co-localized pixels when BTP omitted
  Co-localized pixels (white) of red and green channels: No co-localization
